Where “and” joins values, the source holds several entries; their conditions need not be identical. Equal values may be shown once. Entries after “also recorded” stand apart in the source; their conditions may differ. Read-outs that look alike come from different tables or passages of the source. Marks after values point to notes of the source that are not given here.
How the values were obtained:
MPro^1–199 [1] = molecular target: T1, MPro^1–199 (Severe acute respiratory syndrome coronavirus 2, UniProt P0DTC1); assay type: biochemical, SARS-CoV-2
T1 construct: made in house; host or cells: E. coli BL21-DE3

MPro^1–199 [2] = molecular target: T1, MPro^1–199; set-up: species or system SARS-CoV-2
MPro^10–306 [3] = molecular target: T2, MPro^10–306 (Severe acute respiratory syndrome coronavirus 2, UniProt P0DTC1); set-up: species or system SARS-CoV-2
T2 construct: MPro^10–306 spans the region 10–306 of MPro followed by GP-6His; GP-6His (C, cleaved yes); made in house; host or cells: E. coli BL21-DE3

MPro^10–306 [4] = molecular target: T2, MPro^10–306; assay type: binding; details: 50 µM mixtures, diluted to 20 µM in 5% acetic acid
MPro^WT [5] = molecular target: T3, MPro^WT (Severe acute respiratory syndrome coronavirus 2, UniProt P0DTC1); assay: Monomer-dimer equilibrium of MPro^WT in the presence of inhibitor; set-up: species or system SARS-CoV-2; details: predicted because of thermodynamic stabilization of the dimer upon inhibitor binding
T3 construct: The full-length wild-type (MPro^WT) was expressed and purified; made in house; host or cells: E. coli BL21-DE3
Experimental: Enzyme kinetics were carried out as described previously in reference 1. ^(a)Calculated from Lineweaver-Burk plot. ^(b)Calculated from plot of v vs [E].

[6] = molecular target: T4, MPro^1–199 (monomeric catalytic domain) (Severe acute respiratory syndrome coronavirus 2, UniProt P0DTC1); assay type: binding, SARS-CoV-2; set-up: made in house; host or cells: E. coli BL21-DE3
MPro^1–196 [7] = molecular target: T5, MPro^1–196 (Severe acute respiratory syndrome coronavirus 2, UniProt P0DTC1); set-up: species or system SARS-CoV-2
T5 construct: MPro^1–196 spans residues 1–196; 6His, spacer and TEV protease cleavage site (N, cleaved yes); made in house; host or cells: E. coli BL21-DE3

MPro^1–196 [8] = molecular target: T5, MPro^1–196; assay type: binding, SARS-CoV-2
MPro^1–199 [9] = molecular target: T1, MPro^1–199; assay type: binding; details: for protein-inhibitor adduct in mass spectra: NMV: 50 µM mixtures, GC373: high concentrations, diluted to 20 µM in 5% acetic acid
MPro^1–196 [10] = molecular target: T5, MPro^1–196; assay type: binding; details: NMV: 50 µM mixtures; GC373: high concentrations; diluted to 20 µM in 5% acetic acid
MPro^WT [11] = molecular target: T3, MPro^WT; assay type: binding; details: protein with 2x inhibitor, diluted to 20 µM in 5% acetic acid
MPro^M = tested on: MPro^M; set-up: method as in earlier work; details: in presence of GC373; supplement numbering; cited from earlier work
[12] = tested on: MPro^M (full-length monomeric double mutant E290A, R298A); details: ITC, cited from earlier work
MPro^10–306 [13] = molecular target: T2, MPro^10–306; assay type: binding, SARS-CoV-2
[14] = molecular target: T4, MPro^1–199 (monomeric catalytic domain); assay type: binding, SARS-CoV-2

| Structure (SMILES) | Kdimer.app (MPro^1–199 [2]) [µM] | apparent Kdimers (MPro^1–199 [2]) | dimer contribution (in monomer units) (MPro^1–199 [2]) [%] | faster sedimenting peak, share of signal (MPro^1–199 [2]) | Kdimer.app (MPro^10–306 [3]) | Kdimer.app (MPro^WT [5]) | N [6] | ΔG [6] [kcal/mol] | ΔH [6] [kcal/mol] | ΔS [6] [cal/mol/K] | Kdimer.app (MPro^1–196 [7]) [µM] | N (MPro^1–196 [8]) | ΔG (MPro^1–196 [8]) [kcal/mol] | ΔH (MPro^1–196 [8]) [kcal/mol] | ΔS (MPro^1–196 [8]) [cal/mol/K] | protein-inhibitor adduct in mass spectra (MPro^1–199 [9]) | protein-inhibitor adduct in mass spectra (MPro^1–196 [10]) | protein-inhibitor adduct in mass spectra (MPro^WT [11]) | also measured |
| --- | --- | --- | --- | --- | --- | --- | --- | --- | --- | --- | --- | --- | --- | --- | --- | --- | --- | --- | --- |
| CC(C)(C)[C@H](NC(=O)C(F)(F)F)C(=O)N1C[C@H]2[C@@H]([C@H]1C(=O)N[C@H](C#N)C[C@@H]1CCNC1=O)C2(C)C [NMV, nirmatrelvir] | 180 ± 0.01 | more than 175 µM | 52 | 68% | >510 µM | ≤2^(d) µM | 0.97 ± 0.04 | -6.5 | -3.9 ± 0.1 | 8.8 | 510 ± 0.05 | 1.05 ± 0.03 | -6.7 | -1.8 ± 0.1 | 16.3 | adducts were observed | adducts were observed | nearly equal distribution of MPro^WT and the MPro^WT-NMV adduct | catalytic activity with the FRET substrate upon addition of inhibitor (MPro^1–199 [1]): inhibited; slower sedimenting (2.31S) species, share of integrated signal (MPro^1–199 [2]): 32%; dimer formation in SV-AUC (MPro^10–306 [3]): no detectable dimer formation; protein-inhibitor adduct in mass spectra (MPro^10–306 [4]): very little binding; also recorded: adducts were observed; dimer contribution (in monomer units) (MPro^1–196 [7]): 33%; stability of protein-adducts (MPro^1–199 [9]; 20 µM in acetic acid at ambient temperature (Figs. 7d and S10b)): stable for days |
| CC(C)C[C@H](NC(=O)OCc1ccccc1)C(=O)N[C@H](C=O)C[C@@H]1CCNC1=O [GC373] | 1200 ± 200 | more than 175 µM | 20 | about 14% | >>1200 µM | ≤2^(d) µM | 0.9 ± 0.03 | -6.2 | -2.4 ± 0.1 | 12.7 | >1200 | 0.88 ± 0.09 | -6 | -1.48 ± 0.24 | 15 | only the molecular ions of the unmodified protein | only the molecular ions of the unmodified protein | not observed | Kdimer.app (MPro^M): 6.2^(e^) µM; N [12]: 1.07 ± 0.02; ΔG [12]: -7.2 kcal/mol; ΔH [12]: -6.0 ± 0.2 kcal/mol; ΔS [12]: 3.9 cal/mol/K; Kd ([12]; read-out: Kd = Ki): 6.2 µM and 6.13 µM; N (MPro^10–306 [13]): 0.54 ± 0.03; ΔG (MPro^10–306 [13]): -6 kcal/mol; ΔH (MPro^10–306 [13]): -1.38 ± 0.1 kcal/mol; ΔS (MPro^10–306 [13]): 15.3 cal/mol/K; Kd (MPro^10–306 [13]; read-out: Kd = Ki): 44 ± 8 µM; Kd ([6]; read-out: Kd = Ki): 32 ± 5 µM; dimer formation in SV-AUC (MPro^1–196 [7]): no dimer was observed; Kd (MPro^1–196 [8]; read-out: Kd = Ki): 45 ± 20 µM; fold increase in Kd (weaker binding) relative to MPro^WT [14]: 200 to 300 fold; net ΔG difference relative to MPro^WT [14]: about 3 kcal/mol; Kd ([14]; read-out: Kd range): 32 to 45 µM |
